Measured values reported in PMC12043106, “Insight into antistaphylococcal effect of chlorinated 1-hydroxynaphthalene-2-carboxanilides” (ADMET & DMPK, 2025).
≈ marks a conversion by molar mass, not a printed value. Where “and” joins values, the source holds several entries; their conditions need not be identical. Identical values can stand only once.

Tests used:
[1] = in vitro
Protocol: Cytotoxicity of the compounds was determined using an LDH assay kit (Roche, Mannheim, Germany) as described previously. Human monocytic leukemia THP-1 cells (European Collection of Cell Cultures, Salisbury, UK) were exposed for 24 h at 37 °C to various compound concentrations ranging from 0.37 to 30 μM in RPMI 1640 medium. For LDH assays, cells were seeded into 96-well plates (5×10^4 cells/well in 100 μL of culture medium) in triplicate in serum-free RPMI 1640 medium and measurements were taken 24 h after the treatment with the compounds. The maximum concentration of DMSO (Sigma) in the assays never exceeded 0.1 %. […] The median lethal dose values, LC50, were deduced through the production of a dose-response curve. All data from three independent experiments were evaluated using GraphPad Prism 5.00 software.

[2] = test system: S. aureus ATCC 29213; assay: MTT assay (bacterial viability / respiratory activity); assay type: cell-based, Staphylococcus aureus; details: S. aureus ATCC 29213, MTT; for S. aureus viability inhibition: at the lowest multiple of MIC with at least 70 % inhibition
Protocol: Compounds were prepared as previously stated and diluted in CaMH broth for S. aureus to achieve the desired final concentrations. S. aureus bacterial suspension in sterile distilled water at 0.5 McFarland was diluted 1:3. Inocula were added to each well by multi-inoculator. Diluted […] in broth free from inhibiting compounds were used as the growth control. All compounds were prepared in duplicate. Plates were incubated at 37 °C for 24 h for S. aureus. After the incubation period, 10 % well volume of MTT (3-(4,5-dimethylthiazol-2-yl)-2,5-diphenyltetrazolium bromide) reagent (Sigma) was mixed into each well and incubated at 37 °C for 1 h for S. aureus. Then 100 μL of 17 % sodium dodecyl sulphate in 40 % dimethylformamide was added to each well. The plates were read at 570 nm. The absorbance readings from the cells grown in the presence of the tested compounds were compared with uninhibited cell growth to determine the relative percent inhibition. The percent inhibition was determined through the MTT assay. The percent viability is calculated through the comparison of a measured value and that of the uninhibited control: Viability = (OD570E/OD570P)×100, where OD570E is the reading from the compound-exposed cells, while OD570P is the reading from the uninhibited cells (positive control). Cytotoxic potential is determined by a percent viability of <70 % [60, 61].
The MTT assay can be used to assess cell growth by measuring respiration.

[3] = test system: MRSA SA 3202; assay: Antistaphylococcal screening, microtitration broth MIC; assay type: cell-based, methicillin-resistant S. aureus; details: Staphylococcus aureus; MRSA SA 3202, 24 h, 37 °C
Protocol: (§1) In vitro antistaphylococcal activity of the synthesized compounds was evaluated against three clinical isolates of methicillin-resistant S. aureus: clinical isolate of animal origin, MRSA 63718 (Department of Infectious Diseases and Microbiology, Faculty of Veterinary Medicine, University of Veterinary Sciences Brno, Czech Republic), carrying the mecA gene; and MRSA SA 630 and MRSA SA 3202 [54] (National Institute of Public Health, Prague, Czech Republic), both of human origin. […] All isolates were tested for the presence of the mecA gene encoding methicillin resistance. […] Vancomycin-susceptible methicillin-susceptible S. aureus (VS-MSSA) ATCC 29213, obtained from the American Type Culture Collection, was used as the reference and quality control strain. The minimum inhibitory concentrations (MICs) were evaluated by the microtitration broth method according to the CLSI [58, 59] with some modifications. The compounds were dissolved in DMSO (Sigma, St. Louis, MO, USA) to get a concentration […] and diluted in a microtitration plate in a medium Cation Adjusted Mueller-Hinton (CaMH, Oxoid, Basingstoke, UK) to reach the final concentration of 256-0.0625 μg/mL. The plate was inoculated by the tested microorganisms. The final concentration of bacterial cells was 10^5 for bacteria. […] A drug-free control and a sterility control were included. The plates were incubated for 24 h at 37 °C. […] The experiments were repeated three times.

[4] = test system: MRSA SA 630; assay: as above; assay type: cell-based, methicillin-resistant S. aureus; details: Staphylococcus aureus; MRSA SA 630, 24 h, 37 °C
Protocol: as §1

[5] = test system: MRSA 63718; assay: as above; assay type: cell-based, methicillin-resistant S. aureus; details: Staphylococcus aureus; MRSA 63718, 24 h, 37 °C
Protocol: as §1

[6] = test system: S. aureus ATCC 29213; assay: as above; assay type: cell-based, Staphylococcus aureus; details: for MIC: Staphylococcus aureus, ATCC29213, S. aureus ATCC 29213, 24 h, 37 °C; for Antistaphylococcal activity in words: susceptible strain and resistant isolates
Protocol: as §1

[7] = test system: Human monocytic leukemia THP-1 cells; design: method as in PMID 24075143; details: tested up to 20 μM, ref [29], read-out: LC50 THP-1; cited from earlier work
[8] = Lipophilicity determination by HPLC (capacity factor k, distribution coefficients DpH); assay type: physicochemical; details: for log k: MeOH 72 % / H2O 28 %, C18; for log D6.5: MeOH 72 % / acetate-buffered saline pH 6.5 28 %; for log D7.4: MeOH 72 % / acetate-buffered saline pH 7.4 28 %
From the text: An HPLC system Agilent 1200 equipped with a DAD detector (Agilent, Santa Clara, CA, USA) was used. A chromatographic column Symmetry® C18 5 μm, 4.6×250 mm, part No. WAT054275 (Waters Corp., Milford, MA, USA) was used. The HPLC separation process was monitored and evaluated with EZChrom Elite software ver. 3.3.2 [53] (Agilent). Isocratic elution by a mixture of MeOH p.a. (72 %) and H2O-HPLC Mili-Q grade (28 %) as a mobile phase was used for the determination of capacity factor k. Isocratic elution by a mixture of MeOH p.a. (72 %) and acetate-buffered saline (pH 7.4 and pH 6.5) (28 %) as a mobile phase was used for the determination of distribution coefficients expressed as D7.4 and D6.5. The total flow of the column was 1.0 mL/min, the injection volume was 20 μL, the column temperature was 40 °C, and the sample temperature was 10 °C. The detection wavelength of 210 nm was chosen. A KI methanolic solution was used for the determination of the dead times (tD). Retention times (tR) were measured in minutes. The capacity factors k were calculated according to the formula k = (tR−tD)/tD, where tR is the retention time of the solute, and tD is the dead time obtained using an unretained analyte. The distribution coefficients DpH were calculated according to the formula DpH = (tR−tD)/tD. Each experiment was repeated three times.

Compound	CC50 at 24 h [1]	Concentration: lowest multiple of MIC with at least 70 % inhibition of viability [2]	S. aureus viability inhibition [2]	MIC [3]	MIC [4]	MIC [5]	MIC [6]	CC50 [7]	log k [8]	log D6.5 [8]	log D7.4 [8]	Antistaphylococcal activity in words [6]
CC1(C)S[C@@H]2[C@H](NC(=O)[C@H](N)c3ccccc3)C(=O)N2[C@H]1C(=O)O [APC, ampicillin, reference compound]	0.8 ± 0.1 µM	8× MIC	90.0%	45.8 µM (≈ 16 µg/mL)	45.8 µM (≈ 16 µg/mL)	45.8 µM (≈ 16 µg/mL)	5.72 µM (≈ 2 µg/mL)	–	–	–	–	–
CC[C@@]1(O)C(=O)OCc2c1cc1n(c2=O)Cc2cc3ccccc3nc2-1 [CMP, camptothecin, reference compound]	0.16 ± 0.07 µM	–	–	–	–	–	–	–	–	–	–	–
O=C(Nc1ccccc1)c1ccc2ccccc2c1O [Compound 1]	–	–	–	121 µM (≈ 31.9 µg/mL)	243 µM (≈ 64 µg/mL)	> 972 µM	> 972 µM	> 20 µM	0.6084	0.5139	0.5487	–
O=C(Nc1ccccc1Cl)c1ccc2ccccc2c1O [Compound 2]	–	–	–	> 859 µM	> 859 µM	> 859 µM	> 859 µM	–	0.6900	0.5828	0.5836	–
O=C(Nc1cccc(Cl)c1)c1ccc2ccccc2c1O [Compound 3]	–	–	–	107 µM (≈ 31.9 µg/mL)	429 µM (≈ 128 µg/mL)	> 859 µM	> 859 µM	> 20 µM	0.8556	0.7362	0.7227	–
O=C(Nc1ccc(Cl)cc1)c1ccc2ccccc2c1O [Compound 4]	–	–	–	107 µM (≈ 31.9 µg/mL)	429 µM (≈ 128 µg/mL)	> 859 µM	> 859 µM	> 20 µM	0.8880	0.7640	0.7501	–
O=C(Nc1cccc(Cl)c1Cl)c1ccc2ccccc2c1O [Compound 5]	–	–	–	770 µM (≈ 256 µg/mL)	770 µM (≈ 256 µg/mL)	770 µM (≈ 256 µg/mL)	770 µM (≈ 256 µg/mL)	–	0.6838	0.4371	0.3870	–
O=C(Nc1ccc(Cl)cc1Cl)c1ccc2ccccc2c1O [Compound 6]	–	–	–	770 µM (≈ 256 µg/mL)	770 µM (≈ 256 µg/mL)	770 µM (≈ 256 µg/mL)	770 µM (≈ 256 µg/mL)	–	0.7387	0.5168	0.4680	–
O=C(Nc1cc(Cl)ccc1Cl)c1ccc2ccccc2c1O [Compound 7]	–	–	–	770 µM (≈ 256 µg/mL)	770 µM (≈ 256 µg/mL)	770 µM (≈ 256 µg/mL)	770 µM (≈ 256 µg/mL)	–	0.6717	0.3949	0.3938	–
O=C(Nc1c(Cl)cccc1Cl)c1ccc2ccccc2c1O [Compound 8, N-(2,6-dichlorophenyl)-1-hydroxynaphthalene-2-carboxamide]	> 30 µM	–	–	48.2 µM (≈ 16 µg/mL)	48.2 µM (≈ 16 µg/mL)	48.2 µM (≈ 16 µg/mL)	48.2 µM (≈ 16 µg/mL)	–	0.5729	0.4516	0.4594	Partial activity
O=C(Nc1ccc(Cl)c(Cl)c1)c1ccc2ccccc2c1O [Compound 9]	–	–	–	385 µM (≈ 128 µg/mL)	96.3 µM (≈ 32 µg/mL)	770 µM (≈ 256 µg/mL)	770 µM (≈ 256 µg/mL)	–	0.9304	0.9048	0.8909	–
O=C(Nc1cc(Cl)cc(Cl)c1)c1ccc2ccccc2c1O [Compound 10, N-(3,5-dichlorophenyl)-1-hydroxynaphthalene-2-carboxamide]	> 30 µM	16 × MIC	96% and 96.5%	0.37 µM (≈ 0.123 µg/mL)	0.37 µM (≈ 0.123 µg/mL)	0.37 µM (≈ 0.123 µg/mL)	0.37 µM (≈ 0.123 µg/mL)	–	0.9704	0.9531	0.9306	significant antistaphylococcal activity
O=C(Nc1cc(Cl)c(Cl)cc1Cl)c1ccc2ccccc2c1O [Compound 11]	–	–	–	698 µM (≈ 256 µg/mL)	698 µM (≈ 256 µg/mL)	698 µM (≈ 256 µg/mL)	698 µM (≈ 256 µg/mL)	–	0.6894	0.5314	0.4864	–
O=C(Nc1c(Cl)cc(Cl)cc1Cl)c1ccc2ccccc2c1O [Compound 12]	–	–	–	698 µM (≈ 256 µg/mL)	698 µM (≈ 256 µg/mL)	698 µM (≈ 256 µg/mL)	698 µM (≈ 256 µg/mL)	–	0.8398	0.7254	0.6825	–
O=C(Nc1cc(Cl)c(Cl)c(Cl)c1)c1ccc2ccccc2c1O [Compound 13, N-(3,4,5-trichlorophenyl)-1-hydroxynaphthalene-2--carboxamide]	–	–	–	698 µM (≈ 256 µg/mL)	698 µM (≈ 256 µg/mL)	698 µM (≈ 256 µg/mL)	698 µM (≈ 256 µg/mL)	–	1.2387	1.0960	1.0561	–
